Data published in patent publication US9573895B2, “Tetracycline compounds” (Tetraphase Pharmaceuticals, Inc., priority 2012, dated 2017).
≈ marks a conversion by molar mass, not a printed value. Read-outs that look alike come from different tables or passages of the source.

What was measured:
Type in all cases: cell-based
[1] = tested on: Staphylococcus aureus SA161 (HA-MRSA, tetracycline-resistant, tet(M)); test: MIC assay SA161
[2] = tested on: Enterococcus faecalis EF159 (Tetracycline-resistant, tet(M)); test: MIC assay EF159; conditions: Table 5
[3] = tested on: Enterococcus faecalis EF327 (Wound isolate (US) tet(M)); test: MIC assay EF327
[4] = tested on: Enterococcus faecium EF404 (Blood isolate (US) tet(M)); test: MIC assay EF404
[5] = tested on: Streptococcus pneumoniae SP106 (ATCC 49619); test: MIC assay SP106; conditions: Table 5
[6] = tested on: Streptococcus pneumoniae SP160 (Tetracycline-resistant, tet(M)); test: MIC assay SP160
[7] = tested on: Escherichia coli EC107 (ATCC 25922); test: MIC assay EC107
[8] = tested on: Escherichia coli EC155 (Tetracycline-resistant, tet(A))
[9] = tested on: Enterobacter cloacae EC603 (Urine isolate (Spain)); test: MIC assay EC603
[10] = tested on: Klebsiella pneumoniae KP153 (Tetracycline-resistant, tet(A), MDR, ESBL+); test: MIC assay KP153; conditions: Table 5
[11] = tested on: Klebsiella pneumoniae KP457 (2009 ESBL+, CTX-M, OXA); test: MIC assay KP457
[12] = tested on: Proteus mirabilis PM385 (Urine ESBL+ isolate); test: MIC assay PM385
[13] = tested on: Pseudomonas aeruginosa PA555 (ATCC BAA-47, wild type strain PAO1); test: MIC assay PA555
[14] = tested on: Acinetobacter baumannii AB250 (Cystic fibrosis isolate, MDR); test: MIC assay AB250
[15] = tested on: Stenotrophomonas maltophilia SM256 (Cystic fibrosis isolate, MDR); test: MIC assay SM256
[16] = tested on: Burkholderia cenocepacia BC240 (Cystic fibrosis isolate, MDR); test: MIC assay BC240
KP194 7E+05 = test: MIC assay KP194; conditions: Table 5
Text: The assays were run as follows.

[17] = tested on: Pseudomonas aeruginosa PA556 (Multiple-Mex efflux pump knockout strain)
[18] = tested on: Pseudomonas aeruginosa PA1145 (Strain used in murine pneumonia model); test: MIC assay PA1145; conditions: control compounds, numeric

Row | SMILES | MIC SP106 49619 [5] [µg/mL] | MIC EC155 tetA ([8]; Table 5) [µg/mL] | MIC EC155 tetA ([8]; Table 6) [µg/mL] | MIC KP153 tetA [10] [µg/mL] | MIC KP457 CTX-M-15 ([11]; Table 6) [µg/mL] | MIC KP457 CTX-M-15 ([11]; Table 7) [µg/mL] | MIC KP457 CTX-M-15 ([11]; control compounds, numeric) [µg/mL] | MIC PM385 ([12]; Table 7) [µg/mL] | MIC PM385 ([12]; control compounds, numeric) [µg/mL] | MIC PA555 BAA-47 ([13]; control compounds, numeric) [µg/mL] | MIC AB250 ([14]; Table 5) [µg/mL] | MIC AB250 ([14]; Table 6) [µg/mL] | MIC AB250 ([14]; Table 7) [µg/mL] | MIC SM256 ([15]; Table 5) [µg/mL] | MIC SM256 ([15]; Table 6) [µg/mL] | MIC SM256 ([15]; Table 7) [µg/mL] | MIC (KP194 7E+05) [µg/mL] | MIC EC155 tetA ([8]; Table 7) [µg/mL] | MIC EC155 tetA ([8]; control compounds, numeric) [µg/mL] | MIC PA555 BAA-47 ([13]; Table 7) [µg/mL] | further results
1 | CN(C)c1ccc(O)c2c1C[C@H]1C[C@H]3[C@H](N(C)C)C(O)=C(C(N)=O)C(=O)[C@@]3(O)C(O)=C1C2=O [Minocycline, minocycline] | 0.015 (≈ 0.0328 µM) | 8 (≈ 17.5 µM) | 8 (≈ 17.5 µM) | 8 (≈ 17.5 µM) | 8 (≈ 17.5 µM) | 8 (≈ 17.5 µM) | 8 (≈ 17.5 µM) | 16 (≈ 35 µM) | 16 (≈ 35 µM) | 16 (≈ 35 µM) | 8 (≈ 17.5 µM) | 8 (≈ 17.5 µM) | 8 (≈ 17.5 µM) | 0.5 (≈ 1.09 µM) | 0.5 (≈ 1.09 µM) | 0.5 (≈ 1.09 µM) | 32 (≈ 69.9 µM) |  |  |  | MIC SA161 tetM ([1]; Table 5): 8 µg/mL (≈ 17.5 µM); MIC SA161 tetM ([1]; Table 6): 8 µg/mL (≈ 17.5 µM); MIC SA161 tetM ([1]; Table 7): 8 µg/mL (≈ 17.5 µM); MIC SA161 tetM ([1]; control compounds, numeric): 8 µg/mL (≈ 17.5 µM); MIC EF159 tetM [2]: 16 µg/mL (≈ 35 µM); MIC EF327 tetM ([3]; Table 7): 32 µg/mL (≈ 69.9 µM); MIC EF327 tetM ([3]; control compounds, numeric): 32 µg/mL (≈ 69.9 µM); MIC EF404 tetM ([4]; Table 7): 8 µg/mL (≈ 17.5 µM); MIC EF404 tetM ([4]; control compounds, numeric): 8 µg/mL (≈ 17.5 µM); MIC SP160 tetM ([6]; Table 4): 2 µg/mL (≈ 4.37 µM); MIC SP160 tetM ([6]; Table 5): 2 µg/mL (≈ 4.37 µM); MIC SP160 tetM ([6]; Table 7): 2 µg/mL (≈ 4.37 µM); MIC SP160 tetM ([6]; control compounds, numeric): 2 µg/mL (≈ 4.37 µM); MIC EC107 25922 ([7]; Table 5): 0.5 µg/mL (≈ 1.09 µM); MIC EC107 25922 ([7]; control compounds, numeric): 0.5 µg/mL (≈ 1.09 µM); MIC EC603 tetA ([9]; Table 6): 33 µg/mL (≈ 72.1 µM); MIC EC603 tetA ([9]; Table 7): 33 µg/mL (≈ 72.1 µM); MIC BC240 ([16]; Table 5): 8 µg/mL (≈ 17.5 µM); MIC BC240 ([16]; Table 6): 8 µg/mL (≈ 17.5 µM); MIC BC240 ([16]; Table 7): 8 µg/mL (≈ 17.5 µM)
2 | CN(C)[C@@H]1C(O)=C(C(N)=O)C(=O)[C@@]2(O)C(O)=C3C(=O)c4c(O)cccc4C[C@H]3C[C@@H]12 [Sancycline, sancycline] | 0.25 (≈ 0.603 µM) | 32 (≈ 77.2 µM) | 32 (≈ 77.2 µM) | 32 (≈ 77.2 µM) | 8 (≈ 19.3 µM) | 8 (≈ 19.3 µM) |  | 8 (≈ 19.3 µM) | 8 (≈ 19.3 µM) | 32 (≈ 77.2 µM) | 16 (≈ 38.6 µM) | 16 (≈ 38.6 µM) | 16 (≈ 38.6 µM) | 1 (≈ 2.41 µM) | 1 (≈ 2.41 µM) | 1 (≈ 2.41 µM) | 32 (≈ 77.2 µM) | 32 (≈ 77.2 µM) | 32 (≈ 77.2 µM) | 32 (≈ 77.2 µM) | MIC ([11]; Klebsiella pneumoniae, read-out: MIC KP457 CTX-M-15): 8 µg/mL (≈ 19.3 µM); MIC PA556 ([17]; Table 5): 1 µg/mL (≈ 2.41 µM); MIC PA556 ([17]; Table 6): 1 µg/mL (≈ 2.41 µM); MIC PA556 ([17]; Table 7): 1 µg/mL (≈ 2.41 µM)
3 | CN(C)c1cc(NC(=O)CNC(C)(C)C)c(O)c2c1C[C@H]1C[C@H]3[C@H](N(C)C)C(O)=C(C(N)=O)C(=O)[C@@]3(O)C(O)=C1C2=O [Tigecycline, tigecycline] | 0.016 (≈ 0.0273 µM) | 0.5 (≈ 0.854 µM) | 0.5 (≈ 0.854 µM) | 1 (≈ 1.71 µM) | 1 (≈ 1.71 µM) | 1 (≈ 1.71 µM) | 1 (≈ 1.71 µM) | 4 (≈ 6.83 µM) | 4 (≈ 6.83 µM) | 16 (≈ 27.3 µM) | 8 (≈ 13.7 µM) | 8 (≈ 13.7 µM) | 8 (≈ 13.7 µM) | 1 (≈ 1.71 µM) | 1 (≈ 1.71 µM) | 1 (≈ 1.71 µM) | 8 (≈ 13.7 µM) | 0.5 (≈ 0.854 µM) | 0.5 (≈ 0.854 µM) | 16 (≈ 27.3 µM) | MIC PA556 ([17]; Table 5): 0.25 µg/mL (≈ 0.427 µM); MIC PA556 ([17]; Table 6): 0.25 µg/mL (≈ 0.427 µM); MIC PA556 ([17]; Table 7): 0.25 µg/mL (≈ 0.427 µM); MIC PA1145 Vivisource [18]: 16 µg/mL (≈ 27.3 µM)
